The source of these data is ChEMBL document CHEMBL5390210, “Discovery of novel indazole derivatives as SOS1 agonists that activate KRAS signaling” (Bioorg Med Chem, 2023).

The structures appear in SMILES notation. Calls of active or inactive are those of the source. The calls are words filed in the database; no cut-off is given here.

Assay [1] concerns the target T1, Son of sevenless homolog 1 (Homo sapiens, UniProt Q07889).
T1 sequence (Q07889 whole entry): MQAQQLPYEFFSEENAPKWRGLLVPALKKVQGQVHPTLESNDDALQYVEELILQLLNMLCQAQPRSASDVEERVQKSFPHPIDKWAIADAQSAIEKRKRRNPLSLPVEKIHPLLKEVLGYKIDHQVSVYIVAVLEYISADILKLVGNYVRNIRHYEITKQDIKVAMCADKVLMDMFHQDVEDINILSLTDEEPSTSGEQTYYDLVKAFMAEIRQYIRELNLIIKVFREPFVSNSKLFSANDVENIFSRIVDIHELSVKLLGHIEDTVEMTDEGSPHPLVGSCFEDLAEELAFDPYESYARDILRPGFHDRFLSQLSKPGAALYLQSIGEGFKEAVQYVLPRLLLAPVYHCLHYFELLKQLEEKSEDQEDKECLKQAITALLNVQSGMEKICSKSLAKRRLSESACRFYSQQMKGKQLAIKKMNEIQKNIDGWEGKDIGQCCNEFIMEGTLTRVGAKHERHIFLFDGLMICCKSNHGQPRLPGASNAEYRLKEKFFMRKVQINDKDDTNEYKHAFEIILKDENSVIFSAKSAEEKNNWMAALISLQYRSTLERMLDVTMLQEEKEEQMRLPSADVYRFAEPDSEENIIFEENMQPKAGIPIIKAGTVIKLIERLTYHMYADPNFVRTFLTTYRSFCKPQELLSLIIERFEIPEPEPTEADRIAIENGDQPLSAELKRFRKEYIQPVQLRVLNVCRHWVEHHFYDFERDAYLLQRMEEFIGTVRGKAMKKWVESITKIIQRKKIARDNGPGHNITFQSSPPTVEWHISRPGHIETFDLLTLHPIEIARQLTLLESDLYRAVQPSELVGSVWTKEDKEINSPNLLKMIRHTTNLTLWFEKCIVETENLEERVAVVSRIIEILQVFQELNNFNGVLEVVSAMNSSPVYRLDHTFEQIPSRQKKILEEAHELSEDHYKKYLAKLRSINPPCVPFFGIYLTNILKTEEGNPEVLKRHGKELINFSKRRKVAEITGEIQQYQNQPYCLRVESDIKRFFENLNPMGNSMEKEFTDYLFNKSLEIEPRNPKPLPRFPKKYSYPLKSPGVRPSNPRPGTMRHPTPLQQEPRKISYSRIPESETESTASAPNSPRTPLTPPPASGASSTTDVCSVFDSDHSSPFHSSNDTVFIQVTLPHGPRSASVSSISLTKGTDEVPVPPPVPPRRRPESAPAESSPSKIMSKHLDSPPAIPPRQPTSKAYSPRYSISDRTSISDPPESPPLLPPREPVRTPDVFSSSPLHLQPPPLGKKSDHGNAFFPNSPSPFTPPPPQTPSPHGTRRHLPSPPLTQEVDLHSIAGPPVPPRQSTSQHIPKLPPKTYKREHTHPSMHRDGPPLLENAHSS
Kind of assay: Agonist activity at SOS1 in human HeLa cells expressing wild type KRAS assessed as increase in p-ERK level incubated for 30 mins by Western blot analysis. Format: cell-based. Background: In western blotting, separated proteins are transferred to a membrane and probed.

The test system of assay [2] is NCI-H358. Kind of assay: Activation of RAS signaling pathway in human NCI-H358 cells expressing KRAS G12C mutant assessed as upregulation of p-ERK level incubated for 4 hrs by Western blot analysis. The settings on record: filed as activator, dose 0-20 µM. Format: cell-based.
Assay [3] has as its system HeLa. Put plainly: Antiproliferative activity against human HeLa cells expressing wild type KRAS assessed as inhibition of cell growth incubated for 72 hrs by CCK-8 assay. Format: functional, cell-based. (In general: Tetrazolium assays rely on reduction of a dye to a coloured formazan, in cell work by metabolically active cells.)
For assay [4], the system named is NCI-H358. Put plainly: Antiproliferative activity against human NCI-H358 cells expressing KRAS G12C mutant assessed as inhibition of cell growth incubated for 72 hrs by CCK-8 assay. The format is functional, cell-based. Particulars: NCI-H358, 72 h.
The test system of assay [5] is A549. Put plainly: Antiproliferative activity against human A549 cells expressing KRAS G12S mutant assessed as inhibition of cell growth incubated for 72 hrs by CCK-8 assay. Particulars: A549, 72 h. Format: functional, cell-based.
In assay [6] the target is T2, Son of sevenless homolog 1 (Homo sapiens) (UniProt Q07889).
T2 sequence (whole entry): T1 sequence (Q07889 whole entry)
Kind of assay: Binding affinity to SOS1 in human HeLa cells expressing wild type KRAS assessed as increase in thermal stability at 37 to 52 degreeC at 10 uM incubated for 1 hr by CETSA. The format is cell-based.

For assay [7], the target named is T2, Son of sevenless homolog 1 (Homo sapiens). Put plainly: Binding affinity to SOS1 in human NCI-H358 cells expressing KRAS G12C mutant assessed as increase in thermal stability at 37 to 52 degreeC at 10 uM incubated for 1 hr by CETSA. The format is cell-based.
Assay [8] has as its system HeLa. Kind of assay: Binding affinity to Pan-Ras GTPase in human HeLa cells expressing wild type KRAS assessed as increase in thermal stability at 37 to 60 degreeC at 10 uM incubated for 1 hr by CETSA. Format: cell-based.
Assay [9] deals with NCI-H358. Put plainly: Binding affinity to Pan-Ras GTPase in human NCI-H358 cells expressing KRAS G12C mutant assessed as increase in thermal stability at 37 to 60 degreeC at 10 uM incubated for 1 hr by CETSA. Format: cell-based.
Assay [10] concerns the target T2, Son of sevenless homolog 1 (Homo sapiens). Put plainly: Agonist activity at SOS1 in human HeLa cells with siRNA-mediated SOS1 knockdown assessed as activation of p-ERK1/2 at <25 uM incubated for 30 mins by immunoblot analysis. The format is cell-based.
The target is the same in assay [11]. Kind of assay: Agonist activity at SOS1 in human HeLa cells assessed as activation of p-ERK1/2 at 3.1 to 25 uM incubated for 30 mins by immunoblot analysis. The format is cell-based. Particulars: filed as agonist, dose 3.1-25 µM.
For assay [12] the target is unchanged. Put plainly: Agonist activity at SOS1 in human HeLa cells expressing wild type KRAS assessed as increase in ERK1/2 phosphorylation by measuring increase in RAS-GTP level incubated for 30 mins by Western blot based pull down assay. The format is cell-based. Particulars: filed as agonist, dose 0-25 µM.
The target is the same in assay [13]. Kind of assay: Agonist activity at SOS1 in human HeLa cells expressing wild type KRAS assessed as increase in p-ERK1/2 level at T202/Y204 residue at 0 to 12.5 uM incubated for 30 mins by Western blot analysis. The format is cell-based. Particulars: filed as agonist, dose 0-12.5 µM.
For assay [14] the target is unchanged. Kind of assay: Agonist activity at SOS1 in human HeLa cells expressing wild type KRAS assessed as increase in p-ERK1/2 level at T202/Y204 residue over 25 uM incubated for 30 mins by Western blot analysis. The format is cell-based.

A word on the EC50: it is the concentration giving half of the maximal effect. As to `Cn1cc(-c2ccc3c(c2)c(-c2ccc4c(cnn4C)c2)nn3C2CC3(CNC3)C2)cn1`, the concentration giving a half-maximal response (EC50) in [1] was above 20 µM.
Turning to `CCC(=O)N1CC2(CC(n3nc(C(=O)Nc4ccc5c(cnn5C)c4)c4cc(-c5cn[nH]c5)ccc43)C2)C1`, in assay [1], the EC50 turned out to be 4.37 µM.
For `C=CC(=O)N1CC2(CC(n3nc(-c4ccc5c(cnn5C)c4)c4cc(-c5cn[nH]c5)ccc43)C2)C1`, in assay [1], the EC50 is 9.01 µM.
On the same count and under the same terms, then `C=CC(=O)N1CC2(CC(n3nc(C(=O)Nc4ccc5[nH]ncc5c4)c4cc(-c5cn[nH]c5)ccc43)C2)C1`, with above 20 µM; and `C=CC(=O)N1CC2(CC(n3nc(C(=O)Nc4ccc5[nH]ncc5c4)c4ccccc43)C2)C1`, with above 20 µM.
Turning to `C=CC(=O)N1CC2(CC(n3nc(-c4ccc5c(cnn5C)c4)c4cc(-c5c[nH]nc5C)c(Cl)cc43)C2)C1`, the concentration for a half-maximal effect (EC50) in assay [1] turned out to be 14.2 µM. In assay [2], the Activity entry was “Dose-Dependent Effect”.
Turning to `Cn1ncc2cc(-c3nn(C4CC5(CNC5)C4)c4ccc(-c5cn[nH]c5)cc34)ccc21`, the concentration for a half-maximal effect (EC50) in assay [1] was above 20 µM.
One may read the IC50 as the concentration at which inhibition is half-maximal. For `C=CC(=O)N1CC2(CC(n3nc(C(=O)Nc4ccc5c(cnn5C)c4)c4cc(-c5cn[nH]c5)ccc43)C2)C1`, in assay [1], the EC50 turned out to be 1.53 µM. Besides, the IC50 in [3] came to 9.19 µM; in assay [4] it was 6.04 µM; in [5], 9.61 µM. The result in [6], in [7], in [11], in assay [12] and in [13] was Active. For the same compound, the result in assay [8], in assay [9], in [10] and in assay [14] was inactive.
Regarding `C=CC(=O)N1CC2(CC(n3nc(C(=O)N4CCc5cc(OC)ccc5C4)c4ccccc43)C2)C1`, the 50% effective concentration (EC50) in [1] was above 20 µM.
Still for that read-out and setting: the result for `C=CC(=O)N1CC2(CC(n3nc(C(=O)Nc4ccc5cnn(C)c5c4)c4cc(-c5cn[nH]c5)ccc43)C2)C1` reads 5.45 µM; that for `C=CC(=O)N1CC2(CC(n3nc(C(=O)N4CCCc5cc(OC)ccc54)c4ccccc43)C2)C1`, above 20 µM; that for `Cn1ncc2cc(NC(=O)c3nn(C4CC5(CNC5)C4)c4ccc(-c5cn[nH]c5)cc34)ccc21`, above 20 µM.
`C=CC(=O)N1CC2(CC(n3nc(C(=O)Nc4ccc5c(cnn5C)c4)c4ccccc43)C2)C1`: the EC50 in [1] is above 20 µM.
